A value given as a limit tells only on which side of the number the result lay.

By IC50 is commonly meant the point on the concentration scale where inhibition reaches its midpoint. A low value points to inhibition by little substance.

The test system of the assay is GBM8 cells (human glioblastoma neurosphere cell culture). Kind of assay: GBM8 viability assay (Cell Titer Glo luminescence, 3 days). Conditions: 72 h, 3 days incubation. It is filed as cell-based. The procedure: Example 283: GBM4 and GBM8 Viability Assay
Cell culture medium was prepared from a NSA proliferation kit (Neurocult) and NeuroCult supplements (Stemcell Tech Cat. #05751) and treated with 20 μL of 10 μg/mL rh EGF, 10 μL of 10 μg/mL rh bFGF and 10 μL of 0.2% Heparin. In this medium, human glioblastoma cells were cultured in ultra-low attachment tissue culture flasks until 1×10^6 cells ml was achieved (GBM4 and GBM8 are distinct neurosphere cell cultures derived from these human patient tissues). GBM4 and GBM8 cells were dissociated and 10 mL of media containing 4000 human glioblastoma cells per 90 uL were transferred to an ultra-low binding 96-well plate and incubated at 37° C. overnight. On the following day, 10 μL of a 1% DMSO solution of test compound in assay medium was added to wells containing the cell suspension and the mixture incubated at 37° C. for 3 days. At this time, the plate was removed from the incubator and allowed to reach room temperature. After about 30 minutes, 50 μL of Cell Titer Glo solution was added to each well and the plate shaken for 1 minute at low speed. After 10 minutes luminescence was recorded using a Tecan Safire2 reader.
Reduction in luminescence compared to DMSO only control wells was used to determine the percentage inhibition of cell growth. IC50s were calculated using the % inhibition of luminescence for serial dilutions of compounds fitted to a 4-parameter fit within the Prism (San Diego) curve fitting program.
A general note: Cellular ATP, detected with luciferase, serves as a proxy for viable cell number.
With `Cc1cc(NCCN(C)C)nc(NC(=O)Nc2ccc3c(c2)OCO3)n1` [Compound 284], the IC50 lay in the range of 1000 to 10000 nM.
Next, `Cc1cc(NCC(C)O)nc(NC(=O)Nc2ccc(C)c(C)c2)n1` (stereo not drawn) [Compound 262]: less than 1000 nM; `Cc1cc(NCC2CCCNC2)nc(NC(=O)Nc2ccc(C)c(C)c2)n1` (stereo not drawn) [Compound 271]: less than 1000 nM.
Next, `CNCCNc1cc(C)nc(NC(=O)Nc2ccc(OC(F)(F)F)cc2)n1` [Compound 98, 1-(4-methyl-6-((2-(methylamino)ethyl)amino)pyrimidin-2-yl)-3-(4-(trifluoromethoxy)phenyl)urea]: less than 1000 nM; `CC(=O)NCCNc1cc(C)nc(NC(=O)Nc2ccc3c(c2)OCO3)n1` [Compound 306, N-{2-[2-(3-benzo[1,3]dioxol-5-yl-ureido)-6-methyl-pyrimidin-4-ylamino]-ethyl}-acetamide]: 1000 to 10000 nM.
As to `CNCCCNc1cc(C)nc(NC(=O)Nc2ccccc2)n1` [Compound 83, 1-(4-methyl-6-((3-(methylamino)propyl)amino)pyrimidin-2-yl)-3-phenylurea], the 50% inhibitory concentration (IC50) lay within 1000 to 10000 nM.
Consider `Cc1cc(NCC(F)(F)CO)nc(NC(=O)Nc2ccc(OC(F)(F)F)cc2)n1` [Compound 94], for which the half-inhibitory concentration (IC50) is less than 1000 nM.
As for `Cc1cc(NCCO)nc(NC(=O)Nc2ccc(F)c(C(F)(F)F)c2)n1` [Compound 105], the half-inhibitory concentration (IC50) is less than 1000 nM.
Next, `Cc1cc(NCCN)nc(NC(=O)Nc2cccc(C(F)(F)F)c2)n1` [Compound 182]: less than 1000 nM.
For `Cc1cc(NC2CCNC2)nc(NC(=O)Nc2ccc(F)c(C(F)(F)F)c2)n1` (stereo not drawn) [Compound 123], the concentration for half-maximal inhibition (IC50) is less than 1000 nM.
Next, `Cc1cc(NCCNS(C)(=O)=O)nc(NC(=O)Nc2ccc(OC(F)(F)F)cc2)n1` [Compound 279]: less than 1000 nM; `CNCCNc1cc(C)nc(NC(=O)Nc2ccc(Cl)c(C(F)(F)F)c2)n1` [Compound 63, 1-(4-chloro-3-(trifluoromethyl)phenyl)-3-(4-methyl-6-((2-(methylamino)ethyl)amino)pyrimidin-2-yl)urea]: 1000 to 10000 nM; `Cc1cccc(NC(=O)Nc2nc(C)cc(NCC3CCCNC3)n2)c1` (stereo not drawn) [Compound 232]: less than 1000 nM.
Turning to `Cc1cc(NCCN(C)C)nc(NC(=O)Nc2ccc(C(F)(F)F)cc2)n1` [Compound 203], the 50% inhibitory concentration (IC50) was less than 1000 nM.
Next, `Cc1cc(NCCCN)nc(NC(=O)Nc2ccccc2)n1` [Compound 75]: 1000 to 10000 nM; `CNCCCNc1cc(C)nc(NC(=O)Nc2ccc(C)c(C)c2)n1` [Compound 269]: less than 1000 nM.
Next, `COc1ccc(NC(=O)Nc2nc(C)cc(NCCNC(C)=O)n2)cc1` [Compound 276, N-(2-((2-(3-(4-methoxyphenyl)ureido)-6-methylpyrimidin-4-yl)amino)ethyl)acetamide]: less than 1000 nM; `Cc1cccc(NC(=O)Nc2nc(C)cc(NCCCCN(C)C)n2)c1` [Compound 227]: less than 1000 nM; `Cc1cccc(NC(=O)Nc2nc(C)cc(NCCO)n2)c1` [Compound 211]: less than 1000 nM.
Next, `Cc1ccc(NC(=O)Nc2nc(C)cc(NCCCCO)n2)cc1` [Compound 239]: less than 1000 nM.
Molecule `Cc1ccc(NC(=O)Nc2nc(C)cc(NCCOCCO)n2)cc1` [Compound 238] yielded a 50% inhibitory concentration (IC50) of 1000 to 10000 nM.
For `Cc1cc(NCCN(C)C)nc(NC(=O)Nc2ccc(C(C)(C)C)cc2)n1` [Compound 302], the IC50 fell in the range of 1000 to 10000 nM.
Next, `CNCCNc1cc(C)nc(NC(=O)Nc2ccc(C)c(C)c2)n1` [Compound 268, 1-(3,4-dimethylphenyl)-3-(4-methyl-6-((2-(methylamino)ethyl)amino)pyrimidin-2-yl)urea]: 1000 to 10000 nM.
For `CNCCCCNc1cc(C)nc(NC(=O)Nc2cccc(C)c2)n1` [Compound 231], the IC50 lay within 1000 to 10000 nM.
`Cc1cc(NCCCN)nc(NC(=O)Nc2ccc(C(F)(F)F)cc2)n1` [Compound 204]: the IC50 lay within 1000 to 10000 nM.
The molecule `CNCCNc1cc(C)nc(NC(=O)Nc2cccc(OC)c2)n1` [Compound 153, 1-(3-methoxyphenyl)-3-(4-methyl-6-((2-(methylamino)ethyl)amino)pyrimidin-2-yl)urea] gave an IC50 of 1000 to 10000 nM.
Next, `CC(=O)NCCCNc1cc(C)nc(NC(=O)Nc2ccc(OC(F)(F)F)cc2)n1` [Compound 273, N-(3-((6-methyl-2-(3-(4-(trifluoromethoxy)phenyl)ureido)pyrimidin-4-yl)amino)propyl)acetamide]: less than 1000 nM; `Cc1cc(NCCOCCO)nc(NC(=O)Nc2cccc(C(F)(F)F)c2)n1` [Compound 183]: 1000 to 10000 nM.
`Cc1cc(NCCN)nc(NC(=O)Nc2ccccc2)n1` [Compound 72, 1-(4-((2-aminoethyl)amino)-6-methylpyrimidin-2-yl)-3-phenylurea] returned an IC50 of 1000 to 10000 nM.
Next, `Cc1cc(NCCN)nc(NC(=O)Nc2ccc(C(C)(C)C)cc2)n1` [Compound 304]: less than 1000 nM; `Cc1cc(NCC(C)O)nc(NC(=O)Nc2ccccc2)n1` (stereo not drawn) [Compound 77]: 1000 to 10000 nM.
Next, `Cc1cc(NCCCN(C)C)nc(NC(=O)Nc2cccc(Cl)c2)n1` [Compound 45, 1-{2-[3-(3-Chloro-phenyl)ureido]-6-methyl-4-pyrimidin-ylamino}-3-(dimethyl-amino)propane]: less than 1000 nM; `Cc1cc(NCCCN)nc(NC(=O)Nc2ccc(OC(F)(F)F)cc2)n1` [Compound 89]: less than 1000 nM; `Cc1cc(NCCCCO)nc(NC(=O)Nc2ccc(C)c(C)c2)n1` [Compound 255]: less than 1000 nM.
The molecule `CNCCNc1cc(C)nc(NC(=O)Nc2ccc(F)c(C(F)(F)F)c2)n1` [Compound 120, 1-(4-fluoro-3-(trifluoromethyl)phenyl)-3-(4-methyl-6-((2-(methylamino)ethyl)amino)pyrimidin-2-yl)urea] registered a concentration for half-maximal inhibition (IC50) of less than 1000 nM.
The molecule `COc1ccc(NC(=O)Nc2nc(C)cc(NCCO)n2)cc1` [Compound 130] registered an IC50 of less than 1000 nM.
Next, `COc1ccc(NC(=O)Nc2nc(C)cc(NCCCCO)n2)cc1` [Compound 126]: less than 1000 nM; `Cc1cc(NCCCCN)nc(NC(=O)Nc2cccc(OC(F)(F)F)c2)n1` [Compound 173]: less than 1000 nM.
For `Cc1ccc(NC(=O)Nc2nc(C)cc(NCCCc3cnc[nH]3)n2)cc1` [Compound 243], the concentration for half-maximal inhibition (IC50) is less than 1000 nM.
Molecule `Cc1cc(NCCO)nc(NC(=O)Nc2ccc(C)c(C)c2)n1` [Compound 259] had a half-inhibitory concentration (IC50) of less than 1000 nM.
Consider `Cc1cc(NCCCN(C)C)nc(NC(=O)Nc2ccc(C)c(C)c2)n1` [Compound 251, 1-(4-((3-(dimethylamino)propyl)amino)-6-methylpyrimidin-2-yl)-3-(3,4-dimethylphenyl)urea], for which the IC50 was less than 1000 nM.
`Cc1cc(NCCN(C)C)nc(NC(=O)Nc2ccc3c(c2)OCCO3)n1` [Compound 294] had an IC50 of less than 1000 nM.
`COc1cccc(NC(=O)Nc2nc(C)cc(NCC(C)O)n2)c1` (stereo not drawn) [Compound 147]: the IC50 was in the range of 1000 to 10000 nM.
Next, `Cc1cc(NCCCCN)nc(NC(=O)Nc2ccc(Cl)c(Cl)c2)n1` [Compound 15]: less than 1000 nM; `COc1ccc(NC(=O)Nc2nc(C)cc(NCC(O)CO)n2)cc1` (stereo not drawn) [Compound 135]: less than 1000 nM.
Turning to `Cc1ccc(NC(=O)Nc2nc(C)cc(NCCO)n2)cc1` [Compound 240], the IC50 is less than 1000 nM.
Next, `CC(=O)NCCCNc1cc(C)nc(NC(=O)Nc2ccc(C(C)(C)C)cc2)n1` [Compound 310, N-(3-{2-[3-(4-tert-butyl-phenyl)-ureido]-6-methyl-pyrimidin-4-ylamino}-propyl)-acetamide]: less than 1000 nM.
Next, `COc1ccc(NC(=O)Nc2nc(C)cc(NCCCN)n2)cc1` [Compound 131]: less than 1000 nM; `Cc1cc(NCCCCO)nc(NC(=O)Nc2ccccc2)n1` [Compound 73]: 1000 to 10000 nM.
`CCNc1cc(C)nc(NC(=O)Nc2ccc(OC)cc2)n1` [Compound 139] gave an IC50 of less than 1000 nM.
Take `Cc1cc(NCCN)nc(NC(=O)Nc2ccc(Cl)c(Cl)c2)n1` [Compound 14]: the 50% inhibitory concentration (IC50) is less than 1000 nM.
Take `Cc1cc(NCCN(C)C)nc(NC(=O)Nc2ccc(F)c(C(F)(F)F)c2)n1` [Compound 103, 1-(4-fluoro-3-(trifluoromethyl)phenyl)-3-(4-((2-(dimethylamino)ethyl)amino)-6-methylpyrimidin-2-yl)urea]: the IC50 was less than 1000 nM.
In turn, `Cc1cc(NCCCN(C)C)nc(NC(=O)Nc2ccc(C(F)(F)F)cc2)n1` [Compound 196, 1-(4-((3-(dimethylamino)propyl)amino)-6-methylpyrimidin-2-yl)-3-(4-(trifluoromethyl)phenyl)urea] yielded an IC50 of less than 1000 nM.
Next, `CNCCCCNc1cc(C)nc(NC(=O)Nc2ccc(C)c(C)c2)n1` [Compound 270]: less than 1000 nM; `Cc1cc(NCCCO)nc(NC(=O)Nc2ccc(Cl)cc2)n1` [Compound 41, 3-{2-[3-(p-Chlorophenyl)ureido]-6-methyl-4-pyrimidinylamino}-propanol]: less than 1000 nM.
Consider `CC(=O)NCCCNc1cc(C)nc(NC(=O)Nc2ccc3c(c2)OCO3)n1` [Compound 305, N-(3-((2-(3-(benzo[d][1,3]dioxol-5-yl)ureido)-6-methylpyrimidin-4-yl)amino)propyl)acetamide], for which the IC50 is less than 1000 nM.
Next, `Cc1cc(NCCCN)nc(NC(=O)Nc2cccc(OC(F)(F)F)c2)n1` [Compound 177]: less than 1000 nM.

Source of the values: patent US11691951B2 (Curtana Pharmaceuticals, Inc., priority 2015, dated 2023).
